# BindingDB's records for doi:10.1111/cbdd.12841 (Zhejiang University of Technology, 2017)
# What was measured:
# [1] = molecular target: T1, Amine oxidase [flavin-containing] B (Homo sapiens, UniProt P27338); assay: In vitro MAO-A/B Inhibition Assay
# T1 sequence (P27338 whole entry): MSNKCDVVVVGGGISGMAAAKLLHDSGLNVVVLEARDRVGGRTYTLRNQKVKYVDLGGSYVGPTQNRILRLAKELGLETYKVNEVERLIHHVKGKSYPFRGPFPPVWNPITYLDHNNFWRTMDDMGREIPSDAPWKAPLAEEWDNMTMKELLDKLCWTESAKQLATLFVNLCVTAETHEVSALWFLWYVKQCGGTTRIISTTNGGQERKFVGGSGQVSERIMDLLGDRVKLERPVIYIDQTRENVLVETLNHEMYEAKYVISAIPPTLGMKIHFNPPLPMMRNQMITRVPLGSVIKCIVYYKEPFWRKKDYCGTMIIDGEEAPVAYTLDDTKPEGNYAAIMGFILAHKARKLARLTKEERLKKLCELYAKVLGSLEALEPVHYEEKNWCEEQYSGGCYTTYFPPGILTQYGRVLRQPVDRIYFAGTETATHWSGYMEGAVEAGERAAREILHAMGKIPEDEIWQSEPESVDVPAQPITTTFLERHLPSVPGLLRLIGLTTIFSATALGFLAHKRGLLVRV
# Experimental: (§1) The inhibitory activities of flavones were determined in vitro by using fluorescent probe method following the general procedure described in the literature. [Li et al., Nat. Commun., 5:3276]
# [2] = molecular target: T2, Amine oxidase [flavin-containing] A (Homo sapiens, UniProt P21397); assay: In vitro MAO-A/B Inhibition Assay
# T2 sequence (P21397 whole entry): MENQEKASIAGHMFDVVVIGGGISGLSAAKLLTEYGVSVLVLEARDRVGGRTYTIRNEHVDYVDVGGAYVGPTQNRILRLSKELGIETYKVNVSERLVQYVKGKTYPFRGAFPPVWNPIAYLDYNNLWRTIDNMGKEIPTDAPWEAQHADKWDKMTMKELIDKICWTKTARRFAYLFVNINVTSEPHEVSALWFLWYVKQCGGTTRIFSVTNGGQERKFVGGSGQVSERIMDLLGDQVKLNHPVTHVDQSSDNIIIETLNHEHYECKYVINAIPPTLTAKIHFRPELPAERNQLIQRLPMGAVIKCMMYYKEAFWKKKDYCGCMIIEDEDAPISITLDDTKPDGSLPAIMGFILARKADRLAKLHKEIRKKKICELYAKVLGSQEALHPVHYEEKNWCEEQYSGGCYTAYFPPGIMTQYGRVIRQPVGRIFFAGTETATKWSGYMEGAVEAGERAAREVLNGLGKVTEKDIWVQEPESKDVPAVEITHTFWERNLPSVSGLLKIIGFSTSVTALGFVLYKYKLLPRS
# Experimental: as §1
Structure (SMILES),IC50 [1],IC50 [2]
"O=C(CCCCc1cn(Cc2ccc3oc(-c4ccccc4)cc(=O)c3c2)nn1)Nc1ccccc1 [5-(1-((4-oxo-2-phenyl-4H-chromen-6-yl)methyl)-1H-1,2,3-triazol-4-yl)-N-phenylpentanamide (Az1k8)]",139 µM,327 µM
"O=c1cc(-c2ccccc2)oc2ccc(Cn3nncc3CNc3ccc(Cl)cc3)cc12 [6-((5-(((4-chlorophenyl)amino)methyl)-1H-1,2,3-triazol-1-yl)methyl)-2-phenyl-4H-chromen-4-one (Az2k1)]",176 µM,334 µM
"O=c1cc(-c2ccc(Cl)cc2)oc2ccc(Cn3cc(COc4ccc(F)cc4)nn3)cc12 [2-(4-chlorophenyl)-6-((4-((4-fluorophenoxy)methyl)-1H-1,2,3-triazol-1-yl)methyl)-4H-chromen-4-one (Az2k13)]",291 µM,–
"O=c1cc(-c2ccccc2)oc2ccc(Cn3cc(CNc4ccc(Cl)cc4)nn3)cc12 [6-((4-(((4-chlorophenyl)amino)methyl)-1H-1,2,3-triazol-1-yl)methyl)-2-phenyl-4H-chromen-4-one (Az1k20)]",176 µM,334 µM
"Cc1ccc(NC(=O)CCCCc2cn(Cc3ccc4oc(-c5ccc(Cl)cc5)cc(=O)c4c3)nn2)cc1 [5-(1-((2-(4-chlorophenyl)-4-oxo-4H-chromen-6-yl)methyl)-1H-1,2,3-triazol-4-yl)-N-(p-tolyl)pentanamide (Az2k9)]",513 µM,–
"Cc1ccc(NCc2cn(Cc3ccc4oc(-c5ccc(Cl)cc5)cc(=O)c4c3)nn2)cc1 [2-(4-chlorophenyl)-6-((4-((p-tolylamino)methyl)-1H-1,2,3-triazol-1-yl)methyl)-4H-chromen-4-one (Az2k18)]",203 µM,193 µM
"O=c1cc(-c2ccc(Cl)cc2)oc2ccc(Cn3cc(CNc4ccccc4)nn3)cc12 [2-(4-chlorophenyl)-6-((4-((phenylamino)methyl)-1H-1,2,3-triazol-1-yl)methyl)-4H-chromen-4-one (Az2k17)]",350 µM,283 µM
"O=c1cc(-c2ccccc2)oc2ccc(Cn3nncc3COc3ccc(F)cc3)cc12 [6-((5-((4-fluorophenoxy)methyl)-1H-1,2,3-triazol-1-yl)methyl)-2-phenyl-4H-chromen-4-one (Az1k13)]",322 µM,–
"O=C(CCCCc1cn(Cc2ccc3oc(-c4ccccc4)cc(=O)c3c2)nn1)Nc1ccc(F)cc1 [N-(4-fluorophenyl)-5-(1-((4-oxo-2-phenyl-4H-chromen-6-yl)methyl)-1H-1,2,3-triazol-4-yl)pentanamide (Az1k10)]",151 µM,–
"O=c1cc(-c2ccc(Cl)cc2)oc2ccc(Cn3cc(COc4ccc(Cl)cc4)nn3)cc12 [6-((4-((4-chlorophenoxy)methyl)-1H-1,2,3-triazol-1-yl)methyl)-2-(4-chlorophenyl)-4H-chromen-4-one (Az2k14)]",505 µM,–
"O=c1cc(-c2ccc(Cl)cc2)oc2ccc(Cn3cc(COc4ccccc4)nn3)cc12 [2-(4-chlorophenyl)-6-((4-(phenoxymethyl)-1H-1,2,3-triazol-1-yl)methyl)-4H-chromen-4-one (Az2k11)]",336 µM,346 µM
"Cc1ccc(NC(=O)CCCCc2cn(Cc3ccc4oc(-c5ccccc5)cc(=O)c4c3)nn2)cc1 [5-(1-((4-oxo-2-phenyl-4H-chromen-6-yl)methyl)-1H-1,2,3-triazol-4-yl)-N-(p-tolyl)pentanamide (Az1k9)]",413 µM,–
"O=C(CCCCc1cn(Cc2ccc3oc(-c4ccc(Cl)cc4)cc(=O)c3c2)nn1)Nc1ccc(F)cc1 [5-(1-((2-(4-chlorophenyl)-4-oxo-4H-chromen-6-yl)methyl)-1H-1,2,3-triazol-4-yl)-N-(4-fluorophenyl)pentanamide (Az2k10)]",377 µM,–
"Cc1ccc(NC(=O)CCc2cn(Cc3ccc4oc(-c5ccc(Cl)cc5)cc(=O)c4c3)nn2)cc1 [3-(1-((2-(4-chlorophenyl)-4-oxo-4H-chromen-6-yl)methyl)-1H-1,2,3-triazol-4-yl)-N-(p-tolyl)propanamide (Az2k5)]",287 µM,–
"O=c1cc(-c2ccccc2)oc2ccc(Cn3nncc3COc3ccc(Cl)cc3)cc12 [6-((5-((4-chlorophenoxy)methyl)-1H-1,2,3-triazol-1-yl)methyl)-2-phenyl-4H-chromen-4-one (Az1k14)]",527 µM,–
"O=C(CCc1cn(Cc2ccc3oc(-c4ccc(Cl)cc4)cc(=O)c3c2)nn1)Nc1ccccc1 [3-(1-((2-(4-chlorophenyl)-4-oxo-4H-chromen-6-yl)methyl)-1H-1,2,3-triazol-4-yl)-N-phenylpropanamide (Az2k4)]",321 µM,–
"O=C(CCCCc1cn(Cc2ccc3oc(-c4ccc(Cl)cc4)cc(=O)c3c2)nn1)Nc1ccccc1 [5-(1-((2-(4-chlorophenyl)-4-oxo-4H-chromen-6-yl)methyl)-1H-1,2,3-triazol-4-yl)-N-phenylpentanamide (Az2k8)]",626 µM,–

# These reach a lower IC50 [1]. Values come first.
IC50 [1],IC50 [2],Structure (SMILES)
98 µM,727 µM,"Cc1ccc(C(=O)NCc2cn(Cc3ccc4oc(-c5ccccc5)cc(=O)c4c3)nn2)cc1 [4-methyl-N-((1-((4-oxo-2-phenyl-4H-chromen-6-yl)methyl)-1H-1,2,3-triazol-4-yl)methyl)benzamide (Az1k2)]"
97.4 µM,–,"O=c1cc(-c2ccccc2)oc2ccc(Cn3nncc3COc3ccc(CNC4CC4)cc3)cc12 [6-((5-((4-((cyclopropylamino)methyl)phenoxy)methyl)-1H-1,2,3-triazol-1-yl)methyl)-2-phenyl-4H-chromen-4-one (Az1k16)]"
28.5 µM,25.3 µM,"Cc1ccc(NC(=O)CCc2cn(Cc3ccc4oc(-c5ccccc5)cc(=O)c4c3)nn2)cc1 [3-(1-((4-oxo-2-phenyl-4H-chromen-6-yl)methyl)-1H-1,2,3-triazol-4-yl)-N-(p-tolyl)propanamide (Az1k5)]"
15.6 µM,84.6 µM,"O=C(NCc1cn(Cc2ccc3oc(-c4ccccc4)cc(=O)c3c2)nn1)c1ccc(Cl)cc1 [4-chloro-N-((1-((4-oxo-2-phenyl-4H-chromen-6-yl)methyl)-1H-1,2,3-triazol-4-yl)methyl)benzamide (Az1k3)]"
77.4 µM,109 µM,"Cc1ccc(NCc2cnnn2Cc2ccc3oc(-c4ccccc4)cc(=O)c3c2)cc1 [2-phenyl-6-((5-((p-tolylamino)methyl)-1H-1,2,3-triazol-1-yl)methyl)-4H-chromen-4-one (Az1k18)]"
47 µM,372 µM,"O=C(NCc1cn(Cc2ccc3oc(-c4ccc(Cl)cc4)cc(=O)c3c2)nn1)c1ccc(Cl)cc1 [4-chloro-N-((1-((2-(4-chlorophenyl)-4-oxo-4H-chromen-6-yl)methyl)-1H-1,2,3-triazol-4-yl)methyl)benzamide (Az2k3)]"
97.4 µM,152 µM,"Cc1ccc(OCc2cn(Cc3ccc4oc(-c5ccc(Cl)cc5)cc(=O)c4c3)nn2)cc1 [2-(4-chlorophenyl)-6-((4-((p-tolyloxy)methyl)-1H-1,2,3-triazol-1-yl)methyl)-4H-chromen-4-one (Az2k12)]"
121 µM,678 µM,"O=C(CCc1cn(Cc2ccc3oc(-c4ccc(Cl)cc4)cc(=O)c3c2)nn1)Nc1ccc(F)cc1 [3-(1-((2-(4-chlorophenyl)-4-oxo-4H-chromen-6-yl)methyl)-1H-1,2,3-triazol-4-yl)-N-(4-fluorophenyl)propanamide (Az2k6)]"
111 µM,184 µM,"O=C(NCc1cn(Cc2ccc3oc(-c4ccccc4)cc(=O)c3c2)nn1)c1ccccc1 [N-((1-((4-oxo-2-phenyl-4H-chromen-6-yl)methyl)-1H-1,2,3-triazol-4-yl)methyl)benzamide (Az1k1)]"
134 µM,738 µM,"O=C(CCc1cn(Cc2ccc3oc(-c4ccccc4)cc(=O)c3c2)nn1)Nc1ccc(F)cc1 [N-(4-fluorophenyl)-3-(1-((4-oxo-2-phenyl-4H-chromen-6-yl)methyl)-1H-1,2,3-triazol-4-yl)propanamide (Az1k6)]"
93.9 µM,–,"O=c1cc(-c2ccc(Cl)cc2)oc2ccc(Cn3cc(COc4ccc(CNC5CC5)cc4)nn3)cc12 [2-(4-chlorophenyl)-6-((4-((4-((cyclopropylamino)methyl)phenoxy)methyl)-1H-1,2,3-triazol-1-yl)methyl)-4H-chromen-4-one (Az2k16)]"
71.3 µM,–,"O=c1cc(-c2ccc(Cl)cc2)oc2ccc(Cn3cc(COc4cccc(O)c4)nn3)cc12 [2-(4-chlorophenyl)-6-((4-((3-hydroxyphenoxy)methyl)-1H-1,2,3-triazol-1-yl)methyl)-4H-chromen-4-one (Az2k15)]"
